The results in this text go back to ChEMBL document CHEMBL3046347, “Synthesis and biological evaluation of novel curcumin analogues as anti-inflammatory, anti-cancer and anti-oxidant agents” (Med Chem Res, 2012).

The subject of data set [1] is Radical scavenging activity. Put plainly: Antioxidant activity assessed as DPPH radical scavenging activity at 1 uM after 20 min by spectrophotometric analysis. Type of data set: functional.
A short description of data set [2]: Antioxidant activity assessed as reduction of potassium ferricynide at 1 uM after 10 min by spectrophotometric analysis. It counts as functional. More on the design: scale not given: the % may be the effect or the level left.
For data set [3], the system named is THP-1. Put plainly: Anti-inflammatory activity in Homo sapiens (human) THP1 cells assessed as inhibition of LPS-induced IL6 production at 10 uM incubated for 30 min prior to LPS-challenge measured after 24 hr by ELISA. Type of data set: functional.
Data set [4] has as its target T1, Beta-glucuronidase (Homo sapiens) (UniProt P08236).
T1 sequence (whole entry): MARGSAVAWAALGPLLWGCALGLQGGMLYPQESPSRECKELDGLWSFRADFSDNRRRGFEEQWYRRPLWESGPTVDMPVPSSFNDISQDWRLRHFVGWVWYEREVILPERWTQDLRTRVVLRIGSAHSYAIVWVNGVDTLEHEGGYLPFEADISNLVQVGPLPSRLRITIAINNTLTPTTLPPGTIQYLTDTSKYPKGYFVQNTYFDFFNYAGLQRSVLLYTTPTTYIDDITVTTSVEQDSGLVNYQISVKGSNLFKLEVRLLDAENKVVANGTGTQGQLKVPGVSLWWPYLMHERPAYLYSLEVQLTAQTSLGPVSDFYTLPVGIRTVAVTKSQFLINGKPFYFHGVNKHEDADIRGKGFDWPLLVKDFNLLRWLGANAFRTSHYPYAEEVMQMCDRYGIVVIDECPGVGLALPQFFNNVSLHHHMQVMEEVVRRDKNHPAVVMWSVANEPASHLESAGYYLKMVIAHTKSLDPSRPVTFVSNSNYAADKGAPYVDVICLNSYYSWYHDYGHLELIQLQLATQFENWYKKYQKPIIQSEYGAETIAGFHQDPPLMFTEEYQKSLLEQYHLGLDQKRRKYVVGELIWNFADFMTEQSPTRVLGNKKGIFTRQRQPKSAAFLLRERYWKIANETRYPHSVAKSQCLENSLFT
Put plainly: Inhibition of beta-glucuronidase (unknown origin) using p-nitrophenyl-beta-D-glucopyranosiduronic acid as substrate at 1 uM after 30 min by spectrophotometric analysis.

The subject of the next data set is ACHN. Nature of the data set: Cytotoxicity against Homo sapiens (human) ACHN cells at 10 uM after 48 hr by propidium iodide-based fluorometric assay. Particulars: read-out: GI. It counts as functional.
For a further data set, the target named is Trypsin (Homo sapiens) (UniProt P07477+P07478+P35030). Put plainly: Inhibition of trypsin (unknown origin) using bovine serum albumin as substrate at 1 uM incubated for 20 min prior to substrate addition measured after 25 min by Lowry method. It counts as protein assay.
In another data set the test system is HCT-116. Put plainly: Cytotoxicity against Homo sapiens (human) HCT116 cells at 10 uM after 48 hr by propidium iodide-based fluorometric assay. Type of data set: functional. Conditions: HCT-116, 48 h, read-out: GI.
Another data set relates to PANC-1. Nature of the data set: Cytotoxicity against Homo sapiens (human) PANC1 cells at 10 uM after 48 hr by propidium iodide-based fluorometric assay. It counts as functional. Particulars: PANC-1, 48 h, read-out: GI.
The nature of data set [5]: Cytotoxicity against Homo sapiens (human) […] cells at 10 uM. Type of data set: cell-based.
Data set [6] in a line: Cytotoxicity against Homo sapiens (human) H460 cells at 10 uM after 48 hr by propidium iodide-based fluorometric assay. It counts as functional. Conditions: NCI-H460, 48 h, read-out: GI.
Data set [7] deals with T2, Prostaglandin G/H synthase 1 (Ovis aries) (UniProt P05979).
T2 sequence (whole entry): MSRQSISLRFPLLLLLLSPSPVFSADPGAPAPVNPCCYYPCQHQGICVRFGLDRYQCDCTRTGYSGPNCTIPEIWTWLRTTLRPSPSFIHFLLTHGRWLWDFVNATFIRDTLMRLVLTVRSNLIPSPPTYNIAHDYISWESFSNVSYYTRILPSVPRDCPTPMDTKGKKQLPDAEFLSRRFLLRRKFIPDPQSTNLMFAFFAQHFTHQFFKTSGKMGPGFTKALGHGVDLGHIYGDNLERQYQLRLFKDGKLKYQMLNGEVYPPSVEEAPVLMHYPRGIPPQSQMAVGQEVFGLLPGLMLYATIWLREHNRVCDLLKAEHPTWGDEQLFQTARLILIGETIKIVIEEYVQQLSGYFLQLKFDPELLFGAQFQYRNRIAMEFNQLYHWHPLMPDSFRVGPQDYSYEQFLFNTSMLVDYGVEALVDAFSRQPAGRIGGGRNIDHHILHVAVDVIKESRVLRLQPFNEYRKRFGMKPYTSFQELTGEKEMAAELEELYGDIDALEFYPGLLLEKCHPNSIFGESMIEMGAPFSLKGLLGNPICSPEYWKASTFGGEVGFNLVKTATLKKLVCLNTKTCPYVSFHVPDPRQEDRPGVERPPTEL
Particulars: at 1 µM.
Description: Inhibition of Ovis aries (sheep) COX1 at 1 uM after 5 min by colorimetric analysis

Data set [8] addresses T3, Prostaglandin G/H synthase 2 (Ovis aries) (UniProt P79208).
T3 sequence (whole entry): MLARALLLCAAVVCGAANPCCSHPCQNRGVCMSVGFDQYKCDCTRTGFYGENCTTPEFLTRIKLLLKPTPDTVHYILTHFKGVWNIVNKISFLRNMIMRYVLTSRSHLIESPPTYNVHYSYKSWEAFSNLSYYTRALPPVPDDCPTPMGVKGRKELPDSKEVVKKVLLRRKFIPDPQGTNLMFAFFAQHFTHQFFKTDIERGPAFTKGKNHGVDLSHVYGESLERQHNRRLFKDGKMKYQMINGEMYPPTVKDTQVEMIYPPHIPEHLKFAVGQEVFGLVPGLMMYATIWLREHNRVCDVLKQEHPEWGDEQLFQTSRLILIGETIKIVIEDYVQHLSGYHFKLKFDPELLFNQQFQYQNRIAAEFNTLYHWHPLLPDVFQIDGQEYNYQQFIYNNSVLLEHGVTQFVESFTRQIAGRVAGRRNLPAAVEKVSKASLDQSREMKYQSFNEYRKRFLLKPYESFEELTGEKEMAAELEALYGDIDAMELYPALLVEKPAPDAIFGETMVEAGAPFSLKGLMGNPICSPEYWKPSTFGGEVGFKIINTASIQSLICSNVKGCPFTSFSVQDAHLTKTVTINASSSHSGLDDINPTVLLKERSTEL
Put plainly: Inhibition of Ovis aries (sheep) COX2 at 1 uM after 5 min by colorimetric analysis.

The test system of data set [9] is THP-1. Nature of the data set: Anti-inflammatory activity in Homo sapiens (human) THP1 cells assessed as inhibition of LPS-induced TNFalpha production at 10 uM incubated for 30 min prior to LPS-challenge measured after 24 hr by ELISA. It counts as functional.
For another data set, the system named is Calu-1. Nature of the data set: Cytotoxicity against Homo sapiens (human) Calu1 cells at 10 uM after 48 hr by propidium iodide-based fluorometric assay. Conditions: Calu-1, 48 h, read-out: GI. Type of data set: functional.
The nature of data set [10]: Antioxidant activity assessed as hydroxyl radical scavenging activity at 1 uM by spectrophotometric analysis. Type of data set: functional.

Turning to `O=C(O)c1cc(O)c(O)c(O)c1`, in [1], the Activity was found to be 92.4%.

On to `COc1cc(OC)c(/C=C/C(=O)c2cccc(NC(=O)c3cccc(Br)c3)c2)c(OC)c1Br`, for which the Activity in data set [2] amounted to 39.7%; in data set [1] it was 42.6%; in [5], 31%; in data set [10], 23.6%. The inhibition at 10 µM in the data set on THP-1 [3] was 75%; with THP-1 [9], 4%. The inhibition in data set [4] is 84.7%; against Trypsin (Homo sapiens), 66.5%; in data set [7], 41.7%; in [8] it was 88.4%. For the same molecule, the inhibition of growth at 10 µM stood at 6% in the data set with ACHN; 0% in the data set with HCT-116; 0% with PANC-1; 6% in data set [6]; 0% in the data set with Calu-1.

Consider `COc1cc(OC)c(/C=C/C(=O)c2cccc(NC(=O)c3ccccc3F)c2)c(OC)c1Br`, for which the Activity in data set [2] came to 40.5%; in data set [1], 42.9%; in data set [5], 56%; in data set [10], 43.2%. Besides, the inhibition at 10 µM stood at 96% with THP-1 [3] and 84% with THP-1 [9]. In addition, the inhibition in data set [4] amounted to 74.2%; against Trypsin (Homo sapiens), 64.8%; in data set [7] it was 44.8%; in data set [8] it was 79.3%. Moreover, the inhibition of growth at 10 µM in the data set on ACHN is 66%; in the data set with HCT-116, 66%; in the data set on PANC-1, 68%; in data set [6] it was 52%; in the data set with Calu-1, 67%.

Turning to `COc1cc(OC)c(/C=C/C(=O)c2cccc(NC(=O)c3ccc(F)cc3)c2)c(OC)c1Br`, the Activity stood at 43.9% in data set [2], 44.3% in data set [1], 49% in data set [5] and 33.4% in data set [10]. Besides, the results for the inhibition at 10 µM with THP-1 [3] and in the data set with THP-1 [9] were 97% and 85%, respectively. Also, the inhibition in data set [4] amounted to 79.4%; on Trypsin (Homo sapiens) it was 72.9%; in [7], 58.9%; in data set [8], 83.3%. Moreover, the inhibition of growth at 10 µM in the data set on ACHN stood at 69%; with HCT-116, 64%; with PANC-1, 66%; in [6], 62%; in the data set on Calu-1 it was 60%.

`COc1cc(OC)c(/C=C/C(=O)c2cccc(NC(=O)c3cccc(Cl)c3)c2)c(OC)c1Br`: the Activity was 38.4% in [2], 45.3% in data set [1] and 25% in data set [5]. For the same molecule, the values for the inhibition at 10 µM in the data set with THP-1 [3] and with THP-1 [9] were 64% and 0%, respectively. For the same molecule, the inhibition was 78.2% in data set [4], 78.1% against Trypsin (Homo sapiens), 53.9% in data set [7] and 86.5% in data set [8]. The inhibition of growth at 10 µM in the data set on ACHN amounted to 26%; in the data set with HCT-116, 28%; in the data set with PANC-1 it was 35%; in [6] it was 17%; in the data set with Calu-1 it was 26%.

Regarding `COc1cc(OC)c(/C=C/C(=O)c2cccc(NC(=O)c3cccc(C(F)(F)F)c3)c2)c(OC)c1Br`, the Activity was determined as 40.7% in [2], 45.7% in data set [1] and 65% in [5]. The inhibition at 10 µM with THP-1 [3] was determined as 97%; in the data set on THP-1 [9], 85%. Moreover, the inhibition amounted to 81.4% in data set [4], 65.5% at Trypsin (Homo sapiens), 48.9% in data set [7] and 89.2% in data set [8]. The inhibition of growth at 10 µM in the data set on ACHN stood at 15%; in the data set with HCT-116, 6%; in the data set with PANC-1, 0%; in data set [6], 4%; in the data set with Calu-1, 0%.

Turning to `COc1cc(OC)c(/C=C/C(=O)c2cccc(NC(=O)c3cccc(F)c3)c2)c(OC)c1Br`, the Activity worked out at 39.9% in [2], 43.3% in data set [1], 51% in data set [5] and 32.2% in data set [10]. In addition, the results for the inhibition at 10 µM with THP-1 [3] and with THP-1 [9] were 93% and 78%, respectively. The inhibition in data set [4] came to 72.9%; at Trypsin (Homo sapiens) it was 63.5%; in [7] it was 59.8%; in [8], 82.5%. The inhibition of growth at 10 µM with ACHN worked out at 33%; in the data set with HCT-116, 26%; in the data set with PANC-1, 32%; in [6] it was 33%; in the data set with Calu-1, 31%.

In the case of `COc1cc(OC)c(/C=C/C(=O)c2cccc(NC(=O)c3cccs3)c2)c(OC)c1Br`, the Activity in [2] amounted to 32.7%; in data set [1], 35.3%; in data set [5], 53%; in data set [10], 49.3%. The inhibition at 10 µM is 96% in the data set on THP-1 [3] and 80% in the data set with THP-1 [9]. Moreover, the inhibition in data set [4] was 44.7%; against Trypsin (Homo sapiens), 41.4%; in data set [7], 27.8%; in data set [8] it was 55.4%. For the same molecule, the inhibition of growth at 10 µM in the data set on ACHN was found to be 82%; in the data set with HCT-116 it was 98%; in the data set on PANC-1, 89%; in data set [6], 72%; with Calu-1, 85%.

On to `CC(=O)Oc1ccccc1C(=O)O`, for which the inhibition in data set [8] turned out to be 36.9%.

Take `O=C(O)c1ccccc1O`: the inhibition in data set [4] is 24.8%; against Trypsin (Homo sapiens), 85%.
